Data from the supplement of paper PMC11451515.

System: P12-Ichikawa
Test: cell viability relative to DMSO control; higher = less cytotoxic
Details: 48 h
Summary of the method: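 Library compounds in DMSO were pin-dosed in an 11-point threefold series (47 μM to 0.79 nM) onto leukemia cells in 1536-well plates (5 μl). Plates held 500 cells/well of NOMO1 or SEM or 1000 cells/well of P12-Ichikawa, each adapted for at least four passages in each medium. Luminescence was read with CellTiter-Glo One after 48 h at 37°C. Viability means the per-plate percentage relative to DMSO wells, using cell-free wells as background.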

[1] = HPLM + 10% dialyzed FBS, 0.000781 µM
[2] = HPLM + 10% dialyzed FBS, 0.00234 µM
[3] = HPLM + 10% dialyzed FBS, 0.00702 µM
[4] = HPLM + 10% dialyzed FBS, 0.0211 µM
[5] = HPLM + 10% dialyzed FBS, 0.0632 µM
[6] = HPLM + 10% dialyzed FBS, 0.19 µM
[7] = HPLM + 10% dialyzed FBS, 0.569 µM
[8] = HPLM + 10% dialyzed FBS, 1.71 µM
[9] = HPLM + 10% dialyzed FBS, 5.12 µM
[10] = HPLM + 10% dialyzed FBS, 15.4 µM
[11] = HPLM + 10% dialyzed FBS, 46.1 µM
[12] = RPMI 5 mM glucose + 10% FBS, 0.000781 µM
[13] = RPMI 5 mM glucose + 10% FBS, 0.00234 µM
[14] = RPMI 5 mM glucose + 10% FBS, 0.00702 µM
[15] = RPMI 5 mM glucose + 10% FBS, 0.0211 µM
[16] = RPMI 5 mM glucose + 10% FBS, 0.0632 µM
[17] = RPMI 5 mM glucose + 10% FBS, 0.19 µM
[18] = RPMI 5 mM glucose + 10% FBS, 0.569 µM
[19] = RPMI 5 mM glucose + 10% FBS, 1.71 µM
[20] = RPMI 5 mM glucose + 10% FBS, 5.12 µM
[21] = RPMI 5 mM glucose + 10% FBS, 15.4 µM
[22] = RPMI 5 mM glucose + 10% FBS, 46.1 µM
[23] = RPMI 5 mM glucose + 10% dialyzed FBS, 0.000781 µM
[24] = RPMI 5 mM glucose + 10% dialyzed FBS, 0.00234 µM
[25] = RPMI 5 mM glucose + 10% dialyzed FBS, 0.00702 µM
[26] = RPMI 5 mM glucose + 10% dialyzed FBS, 0.0211 µM
[27] = RPMI 5 mM glucose + 10% dialyzed FBS, 0.0632 µM
[28] = RPMI 5 mM glucose + 10% dialyzed FBS, 0.19 µM
[29] = RPMI 5 mM glucose + 10% dialyzed FBS, 0.569 µM
[30] = RPMI 5 mM glucose + 10% dialyzed FBS, 1.71 µM
[31] = RPMI 5 mM glucose + 10% dialyzed FBS, 5.12 µM
[32] = RPMI 5 mM glucose + 10% dialyzed FBS, 15.4 µM
[33] = RPMI 5 mM glucose + 10% dialyzed FBS, 46.1 µM

SMILES	cell viability [1]	cell viability [2]	cell viability [3]	cell viability [4]	cell viability [5]	cell viability [6]	cell viability [7]	cell viability [8]	cell viability [9]	cell viability [10]	cell viability [11]	cell viability [12]	cell viability [13]	cell viability [14]	cell viability [15]	cell viability [16]	cell viability [17]	cell viability [18]	cell viability [19]	cell viability [20]	cell viability [21]	cell viability [22]	cell viability [23]	cell viability [24]	cell viability [25]	cell viability [26]	cell viability [27]	cell viability [28]	cell viability [29]	cell viability [30]	cell viability [31]	cell viability [32]	cell viability [33]
Clc1ccccc1C(c1ccccc1)(c1ccccc1)n1cccn1	123%	134%	119%	129%	125%	130%	122%	126%	128%	116%	114%	–	–	–	–	–	–	–	–	–	–	–	–	–	–	–	–	–	–	–	–	–	–
O=C(O)CSCC(=O)NC1CCSC1=O (centres undefined)	108%	108%	112%	120%	120%	129%	110%	114%	117%	115%	116%	106%	108%	114%	130%	123%	114%	115%	116%	111%	116%	118%	103%	110%	114%	114%	117%	116%	115%	112%	106%	127%	111%
O=C(c1ccc(/C=C/c2n[nH]c3ccccc23)cc1)N1CCNCC1	94.8%	101%	98%	99.4%	111%	102%	108%	9.55%	13.2%	12.2%	19.6%	92.6%	90.8%	100%	91.3%	101%	107%	102%	13.5%	16.9%	16.3%	19.5%	91.2%	95.8%	86.5%	104%	99.7%	98.3%	100%	25.3%	29.6%	25.8%	31.2%
Nc1nc(Nc2ccc([S+](N)(=O)[O-])cc2)nn1C(=O)c1c(F)cccc1F	104%	109%	103%	106%	112%	110%	106%	112%	90.7%	101%	21.5%	107%	106%	110%	113%	104%	105%	111%	101%	83.7%	81.7%	23.1%	111%	106%	105%	107%	114%	115%	109%	108%	84.9%	86.6%	24.3%
C[C@]12CC[C@@H]3c4ccc(O)cc4CC[C@H]3[C@@H]1CC[C@@H]2O	116%	111%	113%	106%	112%	116%	105%	102%	100%	88.9%	27.1%	118%	112%	115%	115%	105%	111%	112%	108%	107%	105%	20.9%	108%	111%	109%	101%	103%	102%	102%	94.3%	94.1%	75.5%	28.6%
CN1CC/C(CC1)=C3\c4ccccc4CC(=O)c2sccc23	117%	127%	123%	120%	119%	129%	134%	126%	129%	120%	109%	–	–	–	–	–	–	–	–	–	–	–	–	–	–	–	–	–	–	–	–	–	–
CCc1ccc(C(=O)Nc2cc(CN3CCN(C)CC3)cc(C(F)(F)F)c2)cc1C#Cc1cnc2ccnn2c1	126%	118%	114%	121%	120%	124%	118%	117%	112%	102%	88.2%	119%	122%	134%	113%	124%	116%	113%	123%	106%	102%	87.3%	130%	118%	121%	113%	111%	119%	107%	108%	104%	99.1%	83.8%
C[N]1N=CC2=C1C=C(C(=C2)OC3=CC=C(NC(=O)\C4=C\C=C(\C)N(C4=O)C5=CC=C(F)C=C5)C=C3F)C6=C[NH]N=C6	99.5%	113%	117%	114%	114%	127%	123%	104%	78.1%	12%	8.97%	104%	109%	115%	117%	127%	130%	130%	128%	78.9%	16.1%	10.5%	119%	123%	130%	125%	124%	138%	129%	128%	90.2%	26.6%	16.3%
COCCCOc1ccnc(C[S+]([O-])c2nc3ccccc3[nH]2)c1C (centres undefined)	107%	116%	109%	105%	121%	113%	123%	119%	125%	113%	117%	114%	109%	117%	106%	112%	125%	135%	130%	120%	131%	119%	105%	105%	114%	105%	134%	132%	131%	113%	115%	123%	121%
NCCCCCC(=O)O	107%	109%	106%	90.4%	117%	105%	114%	104%	102%	95.3%	101%	102%	101%	98.6%	85.2%	109%	105%	110%	101%	92.2%	105%	88.4%	98.2%	112%	108%	84.1%	108%	97.2%	105%	94.7%	96%	88.4%	92.4%
COc1cc(Nc2ncc(F)c(Nc3ccc4c(n3)N(COP(=O)(O)O)C(=O)C(C)(C)O4)n2)cc(OC)c1OC	97%	102%	101%	102%	108%	106%	105%	103%	110%	108%	98.2%	100%	98.2%	89.6%	100%	97.4%	96.8%	92.4%	95.7%	95.2%	93.9%	87.4%	92.8%	94.8%	98.4%	98%	103%	97.7%	93.9%	91.1%	101%	91.6%	91.6%
C=CCc1cc(OC)c(O)c(C(=O)NCCO)c1	106%	113%	109%	108%	106%	109%	99.4%	105%	103%	93%	98.2%	99.6%	112%	95.4%	104%	113%	100%	103%	95.4%	101%	93.7%	89.4%	98.9%	108%	104%	104%	103%	101%	105%	104%	84.4%	105%	94.1%
CCN1\C=C(C(O)=O)/C(=O)C2=C1C=C(N3CCN(C)CC3)C(=C2)F	117%	118%	114%	107%	116%	113%	108%	105%	90.7%	77.5%	71.5%	110%	116%	117%	108%	117%	120%	108%	112%	84%	73.9%	69.1%	110%	121%	112%	121%	109%	123%	108%	104%	83.1%	69.1%	61.9%
C[C@H](NC(=O)Cc1cc(F)cc(F)c1)C(=O)N[C@@H]1C(=O)N(C)c2ccccc2-c2ccccc21	105%	118%	113%	116%	113%	38.4%	109%	99.5%	6.06%	3.41%	1.45%	110%	111%	128%	128%	116%	125%	119%	122%	100%	3.68%	2.54%	97.7%	111%	112%	113%	118%	117%	113%	115%	84.8%	3.93%	1.82%
O=C(O)c1ccc(-c2c[nH]c3ncc(-c4ccccc4)cc23)cc1C1CCCC1	108%	113%	123%	116%	122%	119%	120%	122%	117%	80.8%	92.6%	119%	131%	113%	126%	134%	133%	138%	131%	129%	67%	105%	114%	124%	126%	130%	132%	125%	138%	133%	121%	73.6%	96.3%
O=C([O-])[C@H](CC(=O)N1C[C@H]2CCCC[C@H]2C1)Cc1ccccc1	107%	118%	120%	129%	123%	125%	125%	119%	131%	130%	134%	114%	129%	122%	129%	134%	131%	131%	131%	137%	139%	142%	113%	122%	126%	134%	123%	127%	129%	122%	135%	131%	129%
